Measurements: patent publication US3960860A, “2-Methyl-5,7-dihydrothieno-[3,4d]-pyrimidine” (priority 1975, dated 1976)

Assays:
[1] = acute oral toxicity (LD50, no-effect dose); settings: in vivo
[2] = fragrance of perfume composition; settings: thienopyrimidine replaces 20 parts of caraway essence
[3] = enhancement of the sweetness of foods; settings: in foods; levels as low as
From the text: (§1) It can thus be used as an enhancer to reduce the quantity of artificial sweeteners required or to permit diminution of the quantity of natural sweeteners such as sugar.

[4] = taste of aqueous solutions; settings: by itself at levels of 10 parts in 10^10, aqueous solutions
From the text: as §1

[5] = organoleptic evaluation (odor and flavor) of the pyrimidine
[6] = comparison of toxicity and potency with the chloroanalog; settings: versus other analogs, such as its chloroanalog
[7] = character of vanilla flavor; settings: 0.2 parts of 0.1% in propylene glycol; compared with the material omitted
Experimental: A vanilla flavor is prepared by admixing the following ingredients: […]

[8] = 0.1% alcohol solution on a blotter strip

Cc1ncc2c(n1)CSC2 [2-methyl-5,7-dihydrothieno-[3,4d]-pyrimidine]
NOAEL ([1]; po, test animals, read-out: maximum no effective dose or the lowest dosage level at which essentially no signs of toxicity in test animals is observed): 34 mg/kg
LD50 ([1]; acute, oral): 260 ± 40 mg/kg
caraway note after replacement of caraway essence [2]: the natural caraway note of the original perfume is retained
level at which the material begins to enhance the sweetness of foods [3]: 10 parts in 10^12
aftertaste imparted to aqueous solutions [4]: sweet, pleasant, and non-bitter aftertaste
odor/flavor character in aqueous solution ([5]; 0.001 ppm in aqueous solution): sweet roasted nut, popcorn character with a light astringency
flavor in water ([5]; 0.003 ppm in water): popcorn, roasted peanut flavor with an astringency like peanut skins
odor [5, 8]: sharp, fresh roasted, sweet nut with a popcorn character
persistence of odor [5, 8]: the odor seems to disappear because of anosmia
flavor effect in chicken broth ([5]; 10^^-6 ppm in chicken broth): accentuates the root vegetable flavor notes
odor of the crystalline material ([5]; colorless crystalline material): powerful odor of roasted fresh, sweet nut with a definite popcorn character
potency relative to other analogs [6]: less potent
toxicity relative to other analogs [6]: less toxic
quality of vanilla flavor [7]: distinctly "natural" quality
